Test results published in ChEMBL document CHEMBL3228009, “Hypobetalipoproteinemic agents. 2. Compounds related to 4-(1-adamantyloxy)aniline” (J Med Chem, 1979).

Tests used:
Rattus norvegicus [1] = experiment: Hypobetalipoproteinemic activity in diet-induced hypercholesteremic rat model assessed as decrease in total serum cholesterol at 50 mg/kg, po relative to control; type: functional
Rattus norvegicus [2] = experiment: Hypobetalipoproteinemic activity in diet-induced hypercholesteremic rat model assessed as decrease in heparin precipitating lipoproteins at 50 mg/kg, po relative to control; type: functional
Rattus norvegicus [3] = species: Rattus norvegicus; experiment: Selectivity ratio of T/C for heparin precipitating lipoproteins to T/C for total serum cholesterol in diet-induced hypercholesteremic rat model; type: functional
Rattus norvegicus [4] = experiment: Toxicity in diet-induced hypercholesteremic rat model assessed as increase in body weight at 50 mg/kg, po relative to control; type: organism-based; set-up: dose 50 mg/kg, route oral; conditions: in vivo
Rattus norvegicus [5] = experiment: Toxicity in diet-induced hypercholesteremic rat model assessed as increase in food intake at 50 mg/kg, po relative to control; type: organism-based; set-up: dose 50 mg/kg, route oral; conditions: in vivo

## Nc1ccc(S(=O)(=O)C23CC4CC(CC(C4)C2)C3)cc1
Rattus norvegicus [1]
  T/C: 1.12
Rattus norvegicus [2]
  T/C: 1.07
Rattus norvegicus [3]
  Selectivity ratio: 0.95
Rattus norvegicus [4]
  Activity: > 63%
Rattus norvegicus [5]
  Activity: > 73%

## Nc1ccc(SC23CC4CC(CC(C4)C2)C3)cc1
Rattus norvegicus [1]
  T/C: 0.51
Rattus norvegicus [2]
  T/C: 0.45
Rattus norvegicus [3]
  Selectivity ratio: 0.87
Rattus norvegicus [4]
  Activity: > 63%
Rattus norvegicus [5]
  Activity: > 73%

## CN(c1ccc(N2CCCC2)cc1)C12CC3CC(CC(C3)C1)C2
Rattus norvegicus [1]
  T/C: 0.93
Rattus norvegicus [2]
  T/C: 1.02
Rattus norvegicus [3]
  Selectivity ratio: 1.1
Rattus norvegicus [4]
  Activity: < 63%
Rattus norvegicus [5]
  Activity: > 73%

## Nc1ccc(NC23CC4CC(CC(C4)C2)C3)cc1
Rattus norvegicus [1]
  T/C: 0.94
Rattus norvegicus [2]
  T/C: 0.85
Rattus norvegicus [3]
  Selectivity ratio: 0.9
Rattus norvegicus [4]
  Activity: < 63%
Rattus norvegicus [5]
  Activity: > 73%

## CC(=O)Nc1ccc(N(C(C)=O)C23CC4CC(CC(C4)C2)C3)cc1
Rattus norvegicus [1]
  T/C: 1
Rattus norvegicus [2]
  T/C: 0.98
Rattus norvegicus [3]
  Selectivity ratio: 0.98
Rattus norvegicus [4]
  Activity: > 63%
Rattus norvegicus [5]
  Activity: > 73%

## c1cc(N2CCCC2)ccc1SC12CC3CC(CC(C3)C1)C2
Rattus norvegicus [1]
  T/C: 0.83
Rattus norvegicus [2]
  T/C: 0.95
Rattus norvegicus [3]
  Selectivity ratio: 1.14
Rattus norvegicus [4]
  Activity: > 63%
Rattus norvegicus [5]
  Activity: > 73%

## Nc1ccc(OC2C3CC4CC(C3)CC2C4)cc1 (stereo not given)
Rattus norvegicus [1]
  T/C: 0.82
Rattus norvegicus [2]
  T/C: 0.67
Rattus norvegicus [3]
  Selectivity ratio: 0.82
Rattus norvegicus [4]
  Activity: > 63%
Rattus norvegicus [5]
  Activity: > 73%

## CC1(Oc2ccc(N)cc2)C2CC3CC(C2)CC1C3 (stereo not given)
Rattus norvegicus [1]
  T/C: 0.58
Rattus norvegicus [2]
  T/C: 0.45
Rattus norvegicus [3]
  Selectivity ratio: 0.77
Rattus norvegicus [4]
  Activity: < 63%
Rattus norvegicus [5]
  Activity: > 73%

## c1cc(N2CCCC2)ccc1OC1C2CC3CC(C2)CC1C3 (stereo not given)
Rattus norvegicus [1]
  T/C: 1.07
Rattus norvegicus [2]
  T/C: 1.07
Rattus norvegicus [3]
  Selectivity ratio: 1.01
Rattus norvegicus [4]
  Activity: > 63%
Rattus norvegicus [5]
  Activity: > 73%

## CC1(Oc2ccc(N3CCCC3)cc2)C2CC3CC(C2)CC1C3 (stereo not given)
Rattus norvegicus [1]
  T/C: 1.04
Rattus norvegicus [2]
  T/C: 1.03
Rattus norvegicus [3]
  Selectivity ratio: 0.99
Rattus norvegicus [4]
  Activity: > 63%
Rattus norvegicus [5]
  Activity: > 73%

## CNc1ccc(OC2C3CC4CC(C3)CC2C4)cc1.Cl (stereo not given)
Rattus norvegicus [1]
  T/C: 0.83
Rattus norvegicus [2]
  T/C: 0.87
Rattus norvegicus [3]
  Selectivity ratio: 1.04
Rattus norvegicus [4]
  Activity: > 63%
Rattus norvegicus [5]
  Activity: > 73%

## Nc1ccc(O)cc1 [4-AMINOPHENOL]
Rattus norvegicus [1]
  T/C: 0.94
Rattus norvegicus [2]
  T/C: 0.98
Rattus norvegicus [3]
  Selectivity ratio: 1.04
Rattus norvegicus [4]
  Activity: > 63%
Rattus norvegicus [5]
  Activity: > 73%
